Where two headings read alike, the source gives them in different places.
Tested on: wild-type ZIKV (Ugandan MR766 strain) in Vero cells
Assay: ZIKV cytopathic effect (CPE) inhibition qHTS assay, CellTiter-Glo readout
Assay type: cell-based, Zika virus
Conditions: for AC50 / Emax: Zika virus, Vero; for Emax: read-out: Max response
[1] = read-out: Log AC50 (M) (converted)
[2] = from Hill fit of the response curve, 50% of maximum activity response, 194 cherry-picked compounds, protocol name not given, read-out: AC50
[3] = potency in log units (Molar) from Hill fit of the response curve, 194 cherry-picked compounds, protocol name not given, read-out: Log AC50 (converted)
[4] = curve class v2 (Inglese et al. 2006)
[5] = difference between neutral response and maximum compound response

Row | Structure (SMILES) | CC-v2 (curve class classification of the dose response curve) | Efficacy | AC50 [M] | AC50 [1] [M] | other results
1 | C=C1C(=O)O[C@H]2CC(=C)[C@H]3CC[C@@](C)(O)[C@@H]3CC12 (stereo partly drawn) [NCGC00385616-01] | -3 | -31.171 | 7.31e-05 | 7.31e-05 | –
2 | COc1cc(Nc2nc3ccccc3nc2N[S+](=O)([O-])c2ccc(NC(=O)c3ccc(C)c(OC)c3)cc2)cc(OC)c1 [NCGC00346541-08] | – | -33.022 | 5.8e-05 | 5.8e-05 | –
3 | c1ccc(CNc2nc(N3CCOc4ccccc43)nc3c2CCCC3)cc1 [NCGC00347065-03] | – | -32.702 | 5.17e-05 | 5.17e-05 | –
4 | CC(C)C[C@H](CO)Nc1nc(S[C@@H](C)c2ccccc2)nc2nc(N)sc12 [NCGC00386735-01] | – | -23.549 | 5.17e-05 | 5.17e-05 | –
5 | CCCNc1ccc2ncc(-c3ccc4[nH]ncc4c3)n2n1 [NCGC00370724-05] | -2.2 | -62.08 | 5.8e-05 | 5.8e-05 | –
6 | C=C(CO)C(=O)O[C@H]1C/C(C)=C/CC/C(CO)=C/[C@H]2OC(=O)C(=C)[C@H]12 [NCGC00380889-01] | -3 | -76.574 | 1.43e-05 | 1.43e-05 | –
7 | C=C[C@H]1[C@H](O[C@@H]2O[C@H](CO)[C@@H](O)[C@H](O)[C@H]2O)OC=C2C(=O)OCC[C@H]21 [NCGC00180755-03] | – | – | – | – | AC50 [2]: 1.28e-05 M; AC50 [3]: 1.28e-05 M; CC-v2 (curve class classification of the dose response curve) [4]: -3; Efficacy [5]: -78.228
8 | COc1ccc2cc1Oc1ccc(cc1)C[C@H]1c3c(cc4c(c3Oc3cc5c(cc3OC)CCN(C)[C@@H]5C2)OCO4)CCN1C [NCGC00161621-05] | – | -31.519 | 6.51e-05 | 6.51e-05 | –
9 | COc1ccc2c(OC)c3ccoc3nc2c1OC [NCGC00016333-05] | – | -23.663 | 1.84e-05 | 1.84e-05 | –
10 | C=C1C(=O)OC2/C=C(\C)C3=CC(=O)C(C)(CC(OC(=O)/C(C)=C/COC(C)=O)C12)O3 (stereo not drawn) [NCGC00384503-01] | -2.1 | -109.374 | 3.17e-05 | 3.17e-05 | –
11 | O=C(O)C[C@H]1CC[C@H](c2ccc(-c3ccc(Nc4ccc(C(F)(F)F)nc4)cn3)cc2)CC1 [NCGC00378933-01] | -3 | -46.182 | 5.8e-05 | 5.8e-05 | –
12 | Cc1cc(=O)oc2c(C=O)c(O)ccc12 [NCGC00379137-01] | -2.2 | -45.072 | 5.8e-05 | 5.8e-05 | –
13 | COc1cc2c(cc1O)C1(Cc3ccc4c(c3C1O)OCO4)[N+](C)([O-])CC2 (stereo not drawn) [NCGC00385471-01] | – | -50.391 | 6.4e-07 | 6.4e-07 | –
14 | C=C1/C(=C/C=C2\CCC[C@]3(C)[C@@H]([C@H](C)/C=C/[C@@H](C)C(C)C)CC[C@@H]23)C[C@@H](O)C[C@@H]1O [NCGC00386145-01] | -3 | -42.433 | 6.51e-05 | 6.51e-05 | –
15 | Cc1cc2c(F)c(Oc3ncnn4cc(OCC(C)O)c(C)c34)ccc2[nH]1 (stereo not drawn) [NCGC00389770-01] | – | -29.933 | 6.51e-05 | 6.51e-05 | –
16 | C=C(C)C(=O)O[C@H]1[C@@H]2[C@H](C)C(=O)O[C@@H]2C[C@@H](C)[C@@H]2C=CC(=O)[C@]21C [NCGC00347858-02] | -2.1 | -111.628 | 4.53e-05 | 4.53e-05 | –
17 | CC1(C)CC=C(c2cnc3ccccc3c2)c2cc(C(=O)Nc3ccc(C(=O)O)cc3)ccc21 [NCGC00370906-01] | – | -33.992 | 5.17e-05 | 5.17e-05 | –
18 | CC1=CC2(O)/C=C/C(C)(O)C(O)C(O)/C=C/C(=O)OC23C(=O)NC(CC(C)C)C3C1C (stereo not drawn) [NCGC00381121-01] | -3 | -74.853 | 1.59e-05 | 1.59e-05 | –
19 | C/C=C(/C)C(=O)OC1CC(C)(C)CC2C3=CCC4C5(C)CCC(O[C@@H]6O[C@H](C(=O)O)[C@@H](O)[C@H](O)[C@H]6O[C@@H]6O[C@H](CO)[C@H](O)[C@H](O[C@@H]7OC[C@H](O)[C@H](O)[C@H]7O[C@@H]7O[C@H](CO)[C@@H](O)[C@H](O)[C@H]7O)[C@H]6O)C(C)(C)C5CCC4(C)C3(C)C(O)C(O)C12CO (stereo partly drawn) [NCGC00386019-01] | – | -41.4 | 9.77e-06 | 9.77e-06 | –
20 | C[C@H]1CCC[C@H](O)CCC/C=C/c2cc(O)cc(O)c2C(=O)O1 [NCGC00485224-01] | -3 | -58.539 | 6.51e-05 | 6.51e-05 | –

Row | Structure (SMILES) | CC-v2 (curve class classification of the dose response curve) | Efficacy | AC50 [M] | AC50 [1] [M] | other results
21 | C[S+]([O-])c1ccc(-c2nc(-c3ccncc3)c(-c3ccc(F)cc3)[nH]2)cc1 (stereo not drawn) [NCGC00025035, SB-203580, reference compound] | – | – | – | – | Identified as active in CPE assay validation set: identified
22 | O=C(CCN1CCN(C(=O)OCc2cc(Cl)cc(Cl)c2)CC1)c1ccc2[nH]c(=O)oc2c1 [NCGC00346939-05] | – | -25.5 | 7.31e-05 | 7.31e-05 | –
23 | C[S+](=O)([O-])NC[C@H]1CC[C@H](Nc2nc3c(s2)CCSc2ccccc2-3)CC1 [NCGC00370875-01] | -3 | -44.692 | 7.31e-05 | 7.31e-05 | –
24 | COC(=O)C12CCC(C)C(C)C1C1=CCC3C4(C)CCC(OC(C)=O)C(C)(C)C4CCC3(C)C1(C)CC2 (stereo not drawn) [NCGC00179932-02] | -3 | -73.633 | 1.42e-05 | 1.42e-05 | –
25 | C/C(=N\NC(=N)N)c1cc(NC(=O)CCCCCCCCC(=O)Nc2cc(/C(C)=N/NC(=N)N)cc(/C(C)=N/NC(=N)N)c2)cc(/C(C)=N/NC(=N)N)c1 [NCGC00487056-01] | -2.2 | -56.895 | 5.8e-05 | 5.8e-05 | –
26 | CC1=CC(=O)[C@@H](O)[C@]2(C)C3[C@@H](O)[C@@H]4OC(=O)[C@@H]([C@H]4C)[C@]3(C)C(=O)C[C@@H]12 (stereo partly drawn) [NCGC00384574-01] | -1.2 | -58.007 | 1.61e-06 | 1.61e-06 | –
27 | C=C(C)C(=O)O[C@H]1[C@H]2C(=C)C(=O)O[C@@H]2C[C@@H](C)/C=C\C(=O)[C@](C)(O)[C@@H]1OC(C)=O [NCGC00169210-02] | – | -39.663 | 3.55e-05 | – | Curve class: -3; AC50 (read-out: Log AC50 (converted)): 3.55e-05 M; Emax: -40.2%
28 | C[C@H]1O[C@@H](O[C@H]2[C@@H](O)C[C@H](O[C@H]3[C@@H](O)C[C@H](O[C@H]4CC[C@@]5(C)[C@H](CC[C@@H]6[C@@H]5C[C@@H](O)[C@]5(C)[C@@H](C7=CC(=O)OC7)CC[C@]65O)C4)O[C@@H]3C)O[C@@H]2C)C[C@H](O)[C@@H]1O [NCGC00090797-15] | – | -19.155 | 8.2e-06 | 8.2e-06 | –
29 | CC1CCC2(C(=O)OC3OC(CO)C(O)C(O)C3O)CCC3(C)C(=CCC4C5(C)CCC(O)C(C)(CO)C5CCC43C)C2C1(C)O (stereo not drawn) [NCGC00385137-01] | -3 | -66.194 | 6.11e-06 | 6.11e-06 | –
30 | COC(=O)C1=C(C)NC(C)=C(C(=O)OC)C1c1cccc(NC(=O)NCCCN2CCC(c3cccc(OC)c3)CC2)c1 [NCGC00485144-01] | – | -27.731 | 7.31e-05 | 7.31e-05 | –
31 | CCCCCOc1cc2c(cc1-c1cc(/C=C/C(=O)O)ccc1O)C(C)(C)CCC2(C)C [NCGC00370868-01] | – | – | – | – | AC50 [2]: 1.84e-05 M; AC50 [3]: 1.84e-05 M; Efficacy [5]: -36.339
32 | Nc1c([S+](=O)([O-])c2ccccc2)c2nc3ccccc3nc2n1-c1ccc(F)cc1 [NCGC00351779-01] | – | -26.957 | 7.31e-05 | 7.31e-05 | –
33 | C=C(C)C1CCC(C)C12CC(O)C1(C)OC1C2OC(=O)C(N)CCC(=O)O (stereo not drawn) [NCGC00381118-01] | -3 | -55.082 | 2.02e-05 | 2.02e-05 | –
34 | C/C(=C\CCC(C)CCO)C(=O)OC1(C)CCC2C(C(=O)O)=COC(OC3OC(CO)C(O)C(O)C3O)C21 (stereo not drawn) [NCGC00380886-01] | – | -68.93 | 1.12e-05 | – | Curve class: -3; AC50 (read-out: Log AC50 (converted)): 1.12e-05 M; Emax: -7.99%
35 | CC(=O)OCC1OC(O[C@H]2CC[C@@]3(C)C(CC[C@]4(C)C3CC=C3[C@@H]5CC(C)(C)CC[C@]5(C(=O)O)CC[C@]34C)[C@]2(C)CO)C(O)C(O)C1OC1OC(C)C(O)C(OC2OCC(O)C(O)C2O)C1O (stereo partly drawn) [NCGC00380575-01] | – | -26.099 | 7.78e-06 | 7.78e-06 | –
36 | COc1ccc(CC2C(=O)NC(C)C(=O)N(C)C3Cc4ccc(cc4)Oc4cc(ccc4OC4OC(CO)C(O)C(O)C4O)CC(C(=O)NC(C)C(=O)NC(C)C(=O)N2C)N(C)C3=O)cc1 (stereo not drawn) [NCGC00384826-01] | – | – | – | – | AC50 [2]: 6.18e-06 M; AC50 [3]: 6.18e-06 M; CC-v2 (curve class classification of the dose response curve) [4]: -2.2; Efficacy [5]: -63.548
37 | CC(C)c1cccc2c(-c3ccccc3)cc(-c3ccc(-c4ccc(C(=O)O)cc4)[nH]3)nc12 [NCGC00370963-01] | -3 | -43.883 | 2.91e-05 | 2.91e-05 | –
38 | CC[C@H](CC#N)OC(=O)N[C@@H](C)c1cccc(NC(=O)Nc2ccc(-c3cnco3)c(OC)c2)c1 [NCGC00345803-05] | – | -31.6 | 7.31e-05 | 7.31e-05 | –
39 | O=C1[C@H](CC[C@H](O)c2ccc(F)cc2)[C@@H](c2ccc(O)cc2)N1c1ccc(F)cc1 [NCGC00263575-07] | – | -30.405 | 2.91e-05 | 2.91e-05 | –

Source: paper PMC8765781, “A platform of assays for the discovery of anti-Zika small-molecules with activity in a 3D-bioprinted outer-blood-retina model” (PLoS ONE, 2022)
